Legend:
[1] = biological target: Sodium-dependent serotonin transporter (Homo sapiens, UniProt P31645); assay: Inhibition of human SERT expressed in CHO-K1 cells assessed as inhibition of [3H]-5-hydroxytryptamine reuptake measured after 20 mins by Microscintillation counting analysis; format: cell-based
[2] = biological target: Sodium-dependent noradrenaline transporter (Homo sapiens, UniProt P23975); assay: Inhibition of human NET expressed in CHO-K1 cells assessed as inhibition of [3H]-norepinephrine reuptake measured after 45 mins by Microscintillation counting analysis; format: cell-based
Chain of Sodium-dependent noradrenaline transporter (P23975 whole entry): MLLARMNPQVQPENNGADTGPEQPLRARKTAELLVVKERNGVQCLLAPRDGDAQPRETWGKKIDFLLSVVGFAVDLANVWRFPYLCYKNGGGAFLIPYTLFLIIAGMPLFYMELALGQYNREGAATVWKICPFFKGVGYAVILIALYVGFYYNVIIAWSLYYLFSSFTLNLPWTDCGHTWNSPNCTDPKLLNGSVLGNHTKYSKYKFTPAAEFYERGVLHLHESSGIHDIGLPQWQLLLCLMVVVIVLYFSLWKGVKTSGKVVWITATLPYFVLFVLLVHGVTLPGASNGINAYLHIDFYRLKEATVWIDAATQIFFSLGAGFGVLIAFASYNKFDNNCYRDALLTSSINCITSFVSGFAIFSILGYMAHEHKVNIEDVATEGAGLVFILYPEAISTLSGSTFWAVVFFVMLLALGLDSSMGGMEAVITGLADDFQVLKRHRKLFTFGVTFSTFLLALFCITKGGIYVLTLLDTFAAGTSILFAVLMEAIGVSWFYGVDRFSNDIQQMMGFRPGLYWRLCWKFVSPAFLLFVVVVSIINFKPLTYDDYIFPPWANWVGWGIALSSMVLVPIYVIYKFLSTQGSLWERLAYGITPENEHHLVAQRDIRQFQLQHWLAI

[3] = biological target: Sodium-dependent dopamine transporter (Homo sapiens, UniProt Q01959); assay: Inhibition of human DAT expressed in CHO-K1 cells assessed as inhibition of [3H]-dopamine reuptake measured after 60 mins by Microscintillation counting analysis; format: cell-based
Chain of Sodium-dependent dopamine transporter (Q01959 whole entry): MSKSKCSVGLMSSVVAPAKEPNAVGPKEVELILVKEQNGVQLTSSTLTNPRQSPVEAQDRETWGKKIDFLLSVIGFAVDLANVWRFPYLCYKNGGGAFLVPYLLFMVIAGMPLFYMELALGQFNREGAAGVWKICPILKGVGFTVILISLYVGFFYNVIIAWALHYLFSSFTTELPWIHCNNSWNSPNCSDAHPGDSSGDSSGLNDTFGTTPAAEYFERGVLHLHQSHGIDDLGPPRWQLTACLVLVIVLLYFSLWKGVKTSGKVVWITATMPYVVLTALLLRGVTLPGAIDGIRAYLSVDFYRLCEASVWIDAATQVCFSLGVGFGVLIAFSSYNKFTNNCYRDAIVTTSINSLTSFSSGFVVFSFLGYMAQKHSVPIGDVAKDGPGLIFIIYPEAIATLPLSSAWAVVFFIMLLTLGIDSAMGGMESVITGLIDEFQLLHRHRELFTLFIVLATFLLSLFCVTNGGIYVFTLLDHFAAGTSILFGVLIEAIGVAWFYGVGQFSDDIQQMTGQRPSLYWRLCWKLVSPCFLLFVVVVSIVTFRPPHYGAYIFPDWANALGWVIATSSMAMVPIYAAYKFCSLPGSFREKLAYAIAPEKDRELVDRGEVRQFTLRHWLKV

[4] = Permeability coefficient of the compound at 10 uM at pH 7.4 measured after 3 hrs by PAMPA based LC/MS/MS analysis; format: ADME; set-up: unit not given here; conditions: pH 7.4, 3 h
MDR1 (ABCB1, P-gp) = MDR1 (ABCB1, P-gp) (Homo sapiens, UniProt P08183); assay: Substrate activity at human MDR1 expressed in LLC-PK1 cells assessed as efflux ratio of permeability from basolateral to apical side over apical to basolateral side at 10 uM measured after 2 hrs by LC/MS/MS analysis; format: ADME, cell-based
Chain of MDR1 (ABCB1, P-gp) (P08183 whole entry): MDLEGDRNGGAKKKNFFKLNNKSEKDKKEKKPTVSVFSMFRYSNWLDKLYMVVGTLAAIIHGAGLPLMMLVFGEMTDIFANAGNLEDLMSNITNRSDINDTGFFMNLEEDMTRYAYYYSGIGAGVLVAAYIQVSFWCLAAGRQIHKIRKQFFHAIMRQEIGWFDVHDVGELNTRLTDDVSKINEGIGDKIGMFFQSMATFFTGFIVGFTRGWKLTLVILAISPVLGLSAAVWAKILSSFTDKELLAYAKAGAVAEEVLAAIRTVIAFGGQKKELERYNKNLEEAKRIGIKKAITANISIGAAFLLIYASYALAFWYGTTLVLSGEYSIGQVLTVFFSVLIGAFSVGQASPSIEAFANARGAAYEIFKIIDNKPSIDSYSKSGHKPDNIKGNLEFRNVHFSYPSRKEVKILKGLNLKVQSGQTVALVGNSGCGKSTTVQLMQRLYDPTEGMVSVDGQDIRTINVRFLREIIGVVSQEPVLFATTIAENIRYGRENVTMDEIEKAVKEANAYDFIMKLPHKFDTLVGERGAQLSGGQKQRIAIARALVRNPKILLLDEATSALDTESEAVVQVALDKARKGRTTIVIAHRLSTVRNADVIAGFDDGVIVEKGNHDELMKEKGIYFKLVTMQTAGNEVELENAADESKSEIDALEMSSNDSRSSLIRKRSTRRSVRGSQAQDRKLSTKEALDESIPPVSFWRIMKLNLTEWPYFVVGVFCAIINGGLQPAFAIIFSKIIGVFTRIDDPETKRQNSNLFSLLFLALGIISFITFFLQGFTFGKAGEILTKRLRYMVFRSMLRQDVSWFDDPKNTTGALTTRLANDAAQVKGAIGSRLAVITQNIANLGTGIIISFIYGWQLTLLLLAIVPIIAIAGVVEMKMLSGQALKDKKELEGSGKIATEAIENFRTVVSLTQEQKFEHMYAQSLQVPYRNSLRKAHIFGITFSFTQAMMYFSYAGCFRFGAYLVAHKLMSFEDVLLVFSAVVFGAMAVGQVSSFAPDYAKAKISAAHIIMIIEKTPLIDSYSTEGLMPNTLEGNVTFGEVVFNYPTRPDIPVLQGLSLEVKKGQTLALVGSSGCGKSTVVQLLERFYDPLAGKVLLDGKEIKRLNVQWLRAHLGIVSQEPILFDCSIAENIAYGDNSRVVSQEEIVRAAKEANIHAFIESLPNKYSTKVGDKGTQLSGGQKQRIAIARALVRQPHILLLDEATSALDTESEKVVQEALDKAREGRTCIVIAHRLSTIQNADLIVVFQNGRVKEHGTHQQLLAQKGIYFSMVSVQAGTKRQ

CYP2D6 = CYP2D6 (Homo sapiens, UniProt P10635); assay: Inhibition of CYP2D6 (unknown origin) expressed in insect cells assessed as reduction in 1'-hydroxybufuralol formation using bufuralol as substrate at 10 uM incubated for 60 mins by LC/MS/MS analysis; format: ADME; conditions: recombinant CYP2D6 expressed in insect cells, probe bufuralol
Chain of CYP2D6 (P10635 whole entry): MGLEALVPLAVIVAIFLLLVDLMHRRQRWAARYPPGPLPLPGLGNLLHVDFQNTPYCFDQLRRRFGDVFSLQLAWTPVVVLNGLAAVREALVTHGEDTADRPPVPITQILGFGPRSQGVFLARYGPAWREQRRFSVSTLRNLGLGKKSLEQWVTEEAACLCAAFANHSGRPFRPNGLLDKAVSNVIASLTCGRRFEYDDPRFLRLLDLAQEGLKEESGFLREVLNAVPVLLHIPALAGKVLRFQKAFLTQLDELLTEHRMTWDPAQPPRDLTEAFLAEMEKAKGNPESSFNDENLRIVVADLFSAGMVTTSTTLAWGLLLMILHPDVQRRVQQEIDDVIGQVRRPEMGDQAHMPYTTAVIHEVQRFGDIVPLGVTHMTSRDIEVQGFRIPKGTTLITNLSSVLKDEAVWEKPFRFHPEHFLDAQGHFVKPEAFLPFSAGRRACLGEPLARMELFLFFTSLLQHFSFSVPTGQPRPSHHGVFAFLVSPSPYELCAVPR

Cytochrome P450 3A4 = Cytochrome P450 3A4 (Homo sapiens, UniProt P08684); assay: Drug metabolism assessed as CYP3A4 (unknown origin) expressed in microsomes-mediated metabolism by measuring metabolic rate at 1 uM incubated for 10 mins by UPLC analysis; format: ADME, Microsome
Chain of Cytochrome P450 3A4 (P08684 whole entry): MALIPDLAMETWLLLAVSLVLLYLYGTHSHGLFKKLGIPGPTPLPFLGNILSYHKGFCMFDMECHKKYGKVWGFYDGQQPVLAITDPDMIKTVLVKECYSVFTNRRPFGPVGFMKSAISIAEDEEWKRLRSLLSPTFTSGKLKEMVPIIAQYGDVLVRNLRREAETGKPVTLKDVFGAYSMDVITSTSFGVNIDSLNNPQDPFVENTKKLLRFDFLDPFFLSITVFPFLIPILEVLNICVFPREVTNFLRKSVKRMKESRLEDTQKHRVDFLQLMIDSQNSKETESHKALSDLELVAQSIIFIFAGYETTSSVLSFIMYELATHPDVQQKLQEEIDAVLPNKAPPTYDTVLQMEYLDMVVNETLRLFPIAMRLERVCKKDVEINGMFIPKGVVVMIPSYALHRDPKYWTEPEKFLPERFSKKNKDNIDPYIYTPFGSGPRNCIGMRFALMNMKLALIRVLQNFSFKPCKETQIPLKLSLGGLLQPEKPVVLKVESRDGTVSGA

Cytochrome P450 2D6 [5] = biological target: T1, Cytochrome P450 2D6 (Homo sapiens, UniProt P10635); assay: Drug metabolism assessed as CYP2D6 (unknown origin) expressed in microsomes-mediated metabolism by measuring metabolic rate at 1 uM incubated for 10 mins by UPLC analysis; format: ADME, Microsome
T1 sequence (P10635 whole entry): as the sequence (P10635 whole entry) above

Cytochrome P450 2C19 = Cytochrome P450 2C19 (Homo sapiens, UniProt P33261); assay: Drug metabolism assessed as CYP2C19 (unknown origin) expressed in microsomes-mediated metabolism by measuring metabolic rate at 1 uM incubated for 10 mins by UPLC analysis; format: ADME, Microsome
Chain of Cytochrome P450 2C19 (P33261 whole entry): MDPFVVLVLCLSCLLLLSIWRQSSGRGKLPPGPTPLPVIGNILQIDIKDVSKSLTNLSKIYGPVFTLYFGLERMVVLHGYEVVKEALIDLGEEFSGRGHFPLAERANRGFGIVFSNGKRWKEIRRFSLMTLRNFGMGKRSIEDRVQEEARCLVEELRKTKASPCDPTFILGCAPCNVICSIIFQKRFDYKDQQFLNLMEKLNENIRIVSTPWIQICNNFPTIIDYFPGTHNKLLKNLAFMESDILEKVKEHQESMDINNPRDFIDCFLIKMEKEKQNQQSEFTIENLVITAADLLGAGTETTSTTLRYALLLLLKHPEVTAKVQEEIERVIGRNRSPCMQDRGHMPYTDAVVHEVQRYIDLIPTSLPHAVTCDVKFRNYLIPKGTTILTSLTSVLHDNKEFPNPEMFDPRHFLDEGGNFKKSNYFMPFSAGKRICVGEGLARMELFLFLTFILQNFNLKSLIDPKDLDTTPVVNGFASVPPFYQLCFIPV

[6] = Drug metabolism assessed as CYP2B6/CYP2C9/CYP2E1/CYP2C8/CYP1A2 (unknown origin) expressed in microsomes-mediated metabolism by measuring metabolic rate at 1 uM incubated for 10 mins by UPLC analysis; format: ADME, Microsome; conditions: human
Cytochrome P450 2D6 [7] = biological target: T1, Cytochrome P450 2D6; assay: Drug metabolism in human hepatocytes assessed as CYP2D6-mediated N-(((6S,7R)-7-(4-chloro-3-fluorophenyl)-1,4-oxazepan-6-yl)methyl)-2-hydroxyacetamide formation at 10 uM incubated for 6 hrs by LC/MS/MS anlaysis; format: ADME, cell-based, Hepatocyte
hERG (KCNH2) = hERG (KCNH2) (Homo sapiens, UniProt Q12809); assay: Inhibition of human ERG at 10 uM
[8] = Oral bioavailability in Crl:CD(SD)(IGS) rat at 1 mg/kg measured after 8 hrs by LC/MS/MS analysis; format: ADME, organism-based; conditions: in vivo
[9] = Ex vivo receptor occupancy at NET in Sprague-Dawley rat left brain cortex assessed as [3H]nisoxetine labelling at 3 mg/kg, iv measured after 20 mins by scintillation counting analysis; format: functional
Cytochrome P450 2D6 [10] = biological target: T1, Cytochrome P450 2D6; assay: Drug metabolism assessed as CYP2D6 (unknown origin)-expressed in microsomes mediated N-(((6S,7R)-7-(4-chloro-3-fluorophenyl)-1,4-oxazepan-6-yl)methyl)-2-hydroxyacetamide formation at 1 uM incubated for 10 mins by UPLC anlaysis; format: ADME, Microsome
Rattus norvegicus = assay: Anti-SUI activity in po dosed rat assessed as induction of urethral resistance by measuring increase in leak point pressure measured after 15 to 240 mins; format: functional, organism-based; conditions: dose 1-10 mg/kg, time 15-240 min, tested as the 2H-labelled form

Chain of Sodium-dependent serotonin transporter (P31645 whole entry): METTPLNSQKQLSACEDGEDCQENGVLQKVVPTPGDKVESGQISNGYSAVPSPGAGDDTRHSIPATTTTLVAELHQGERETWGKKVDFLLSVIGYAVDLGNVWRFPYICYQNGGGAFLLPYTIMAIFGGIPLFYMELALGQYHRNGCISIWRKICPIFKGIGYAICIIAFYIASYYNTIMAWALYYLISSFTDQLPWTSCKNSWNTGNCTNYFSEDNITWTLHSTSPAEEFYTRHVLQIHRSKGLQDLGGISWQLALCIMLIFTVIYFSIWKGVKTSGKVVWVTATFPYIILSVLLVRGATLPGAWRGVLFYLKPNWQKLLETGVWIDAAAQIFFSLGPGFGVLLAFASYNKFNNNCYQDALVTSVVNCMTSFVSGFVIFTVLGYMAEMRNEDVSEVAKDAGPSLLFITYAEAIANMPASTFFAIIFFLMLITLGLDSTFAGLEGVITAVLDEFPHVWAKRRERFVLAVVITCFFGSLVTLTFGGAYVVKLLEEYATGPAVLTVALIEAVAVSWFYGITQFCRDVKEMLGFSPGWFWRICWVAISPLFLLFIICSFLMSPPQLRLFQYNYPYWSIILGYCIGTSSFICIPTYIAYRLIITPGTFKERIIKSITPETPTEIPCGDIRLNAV

| IC50 [1] [nM] | IC50 [2] [nM] | IC50 [3] [nM] | Pe [4] | efflux ratio at 2 h, 10 µM (MDR1 (ABCB1, P-gp)) | inhibition at 1 h, 10 µM (CYP2D6) [%] | Drug metabolism (Cytochrome P450 3A4) [%/min/pmol] | Drug metabolism (Cytochrome P450 2D6 [5]) [%/min/pmol] | Drug metabolism (Cytochrome P450 2C19) [%/min/pmol] | Drug metabolism [6] [%/min/pmol] | Drug metabolism (Cytochrome P450 2D6 [7]) | bioavailability [8] [%] | Drug metabolism (Cytochrome P450 2D6 [10]) | Compound | inhibition at 10 µM (hERG (KCNH2)) [%] | Occ [9] [%] | Activity (Rattus norvegicus) |
| --- | --- | --- | --- | --- | --- | --- | --- | --- | --- | --- | --- | --- | --- | --- | --- | --- |
| 62 | 2.6 | > 1000 | 260 | 3 | 62 |  |  |  |  |  |  |  | CCCC(=O)NC[C@@H]1CNCCO[C@H]1c1ccc(Cl)c(Cl)c1.Cl |  |  |  |
| 220 | 3.3 | > 1000 |  | 1.4 | 79 | 0.026 | 0.365 | 0.005 | 0 |  |  |  | CCOCC(=O)NC[C@@H]1CNCCO[C@H]1c1ccc(Cl)c(F)c1.Cl |  |  |  |
| 680 | 3.3 | > 1000 |  | 2.1 | 49 | 0.015 | 0.035 | 0.012 | 0.008 | Metabolite_Detected | 68 |  | Cl.[2H]C([2H])([2H])OCC(=O)NC[C@@H]1CNCCO[C@H]1c1ccc(Cl)c(F)c1 | 17 | 3.8 |  |
|  |  | > 1000 | 146 | 5 | 26 |  |  |  |  |  |  |  | CC(=O)NC[C@@H]1CNCCO[C@H]1c1ccc(Cl)c(Cl)c1.Cl |  |  |  |
| 200 | 5.3 | > 1000 |  | 3.5 | 80 |  |  |  |  |  |  |  | Cl.O=C(NC[C@@H]1CNCCO[C@H]1c1ccc(Cl)c(F)c1)C1CCCO1 (some centres not stated) |  |  |  |
| 890 | 3.9 | > 1000 | 151 | 12 | 44 |  |  |  |  |  |  |  | COCCC(=O)NC[C@@H]1CNCCO[C@H]1c1ccc(Cl)c(F)c1.Cl |  |  |  |
| 440 | 3.2 | > 1000 | 221 | 2.1 | 48 | 0 | 0.081 | 0.016 | 0 | Metabolite_Detected |  | Metabolite_Detected | COCC(=O)NC[C@@H]1CNCCO[C@H]1c1ccc(Cl)c(F)c1.Cl |  |  | Dose-dependent effect |
| 390 | 4.8 | > 1000 |  | 1.7 | 66 | 0.064 | 0.37 | 0.017 | 0 |  |  |  | CC(C)OCC(=O)NC[C@@H]1CNCCO[C@H]1c1ccc(Cl)c(F)c1.Cl |  |  |  |
| 540 | 2.6 | > 1000 |  | 3.6 | 66 |  |  |  |  |  |  |  | Cl.O=C(NC[C@@H]1CNCCO[C@H]1c1ccc(Cl)c(F)c1)C1COCCO1 (some centres not stated) |  |  |  |
| 120 | 1.5 | > 1000 | 207 | 4.8 | 41 |  |  |  |  |  |  |  | CCC(=O)NC[C@@H]1CNCCO[C@H]1c1ccc(Cl)c(Cl)c1.Cl |  |  |  |
| 800 | 8.8 | > 1000 |  | 1.9 | 33 |  |  |  |  |  |  |  | COC(C)C(=O)NC[C@@H]1CNCCO[C@H]1c1ccc(Cl)c(F)c1.Cl (some centres not stated) |  |  |  |
| 520 | 21 | > 1000 |  | 2.4 | 42 |  |  |  |  |  |  |  | COC(C)(C)C(=O)NC[C@@H]1CNCCO[C@H]1c1ccc(Cl)c(F)c1.Cl |  |  |  |
| 70 | 1.2 | 1600 | 279 | 2.1 | 70 |  |  |  |  |  |  |  | COCC(=O)NC[C@@H]1CNCCO[C@H]1c1ccc(Cl)c(Cl)c1.Cl |  |  |  |

Reference: ChEMBL document CHEMBL4715727, “Design, synthesis, and biological evaluation of a novel series of peripheral-selective noradrenaline reuptake inhibitors-Part 2” (Bioorg Med Chem, 2016)
